Experimental data as given in patent US9708308B2, “Factor IXa inhibitors” (Merck Sharp & Dohme Corp., priority 2012, dated 2017).

target: Factor IXa (Homo sapiens, UniProt P00740); test: Determination of inhibitory activity against Factor IXa (cleavage of fluorescent peptide substrate); type: biochemical; settings: cleavage of fluorescent peptide CH3SO2-D-CHG-Gly-Arg-AFC, release of AFC; read-out: FIXa IC50
Outline: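 Factor IXa activity followed via cleavage of CH3SO2-D-CHG-Gly-Arg-AFC, releasing AFC. Fluorescence read at excitation 405 nm, emission 510 nm.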

Factor IXa, sequence (P00740 227-461 limits assumed): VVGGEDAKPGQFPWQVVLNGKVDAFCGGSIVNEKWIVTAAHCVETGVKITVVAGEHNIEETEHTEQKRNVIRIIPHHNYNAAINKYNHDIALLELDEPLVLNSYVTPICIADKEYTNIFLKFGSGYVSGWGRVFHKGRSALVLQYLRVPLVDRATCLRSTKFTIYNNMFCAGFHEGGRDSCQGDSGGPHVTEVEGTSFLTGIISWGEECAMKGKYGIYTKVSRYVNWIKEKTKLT
Factor IXa, sequence (P00740 47-191 partner limits assumed): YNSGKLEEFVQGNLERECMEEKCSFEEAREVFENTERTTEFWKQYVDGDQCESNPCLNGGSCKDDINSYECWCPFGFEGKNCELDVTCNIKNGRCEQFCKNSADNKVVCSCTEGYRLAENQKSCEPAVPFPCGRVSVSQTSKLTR

| Compound | IC50 [nM] |
| --- | --- |
| C[C@@H]1CN(c2ccn(-c3ccnc(C(F)(F)F)c3)n2)C(=O)[C@@H]([C@@H](O)C(=O)Nc2ccc3c(N)noc3c2)O1 [Example 170, (R)—N-(3-aminobenzo[d]isoxazol-6-yl)-2-hydroxy-2-((2R,6R)-6-methyl-3-oxo-4-(1-(2-(trifluoromethyl)pyridin-4-yl)-1H-pyrazol-3-yl)morpholin-2-yl)acetamide] | 2.42 |
| COc1cc(-n2ccc(N3CC(C)(C)O[C@H]([C@@H](O)C(=O)Nc4ccc5c(N)noc5c4)C3=O)n2)ccn1 [Example 171, (R)—N-(3-aminobenzo[d]isoxazol-6-yl)-2-hydroxy-2-((R)-4-(1-(2-methoxypyridin-4-yl)-1H-pyrazol-3-yl)-6,6-dimethyl-3-oxomorpholin-2-yl)acetamide] | 20.9 |
| CC1(C)CN(c2ccn(-c3ccnnc3)n2)C(=O)[C@@H]([C@@H](O)C(=O)Nc2ccc3c(N)noc3c2)O1 [Example 172, (R)—N-(3-aminobenzo[d]isoxazol-6-yl)-2-((R)-6,6-dimethyl-3-oxo-4-(1-(pyridazin-4-yl)-1H-pyrazol-3-yl)morpholin-2-yl)-2-hydroxyacetamide] | 1.8 |
| CC1(C)CN(c2nn(-c3ccnnc3)cc2F)C(=O)[C@@H]([C@@H](O)C(=O)Nc2ccc3c(N)noc3c2)O1 [Example 173, (R)—N-(3-aminobenzo[d]isoxazol-6-yl)-2-((R)-4-(4-fluoro-1-(pyridazin-4-yl)-1H-pyrazol-3-yl)-6,6-dimethyl-3-oxomorpholin-2-yl)-2-hydroxyacetamide] | 21.1 |
| COc1cc(-n2ccc(N3CC(C)(C)O[C@H]([C@@H](O)C(=O)Nc4ccc5c(N)noc5c4)C3=O)n2)cnn1 [Example 174, (R)—N-(3-aminobenzo[d]isoxazol-6-yl)-2-hydroxy-2-((R)-4-(1-(6-methoxypyridazin-4-yl)-1H-pyrazol-3-yl)-6,6-dimethyl-3-oxomorpholin-2-yl)acetamide] | 2.77 |
